pEC50: −log10 of the molar value. A value given as a limit tells only on which side of the number the result lay.

This assay deals with T1, human FXR (NR1H4) (Homo sapiens, UniProt Q96RI1).
T1 sequence (Q96RI1 1-486): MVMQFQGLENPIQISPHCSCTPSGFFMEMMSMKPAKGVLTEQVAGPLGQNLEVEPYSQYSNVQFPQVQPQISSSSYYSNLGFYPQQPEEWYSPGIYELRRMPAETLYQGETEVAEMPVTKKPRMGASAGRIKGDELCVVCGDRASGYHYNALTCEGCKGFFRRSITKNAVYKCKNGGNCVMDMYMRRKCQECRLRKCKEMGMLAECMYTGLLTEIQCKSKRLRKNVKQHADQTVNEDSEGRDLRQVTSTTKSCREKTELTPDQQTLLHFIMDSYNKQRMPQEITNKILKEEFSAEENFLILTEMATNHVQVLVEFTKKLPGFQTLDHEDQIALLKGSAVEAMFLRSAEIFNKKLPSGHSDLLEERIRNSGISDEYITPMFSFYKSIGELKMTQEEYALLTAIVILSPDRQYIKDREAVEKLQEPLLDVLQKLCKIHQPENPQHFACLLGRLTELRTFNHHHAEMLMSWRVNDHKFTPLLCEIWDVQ
Briefly: Human FXR (NR1H4) Assay: Gal4 promoter driven luciferase reporter transactivation in CHO cells (Indigo Bioscience kit IB00601). The class given is cell-based. The conditions noted are these: potency range, Human FXR (NR1H4) reporter assay in CHO cells; read-out: EC50. The text has this:
Human FXR (NR1H4) Assay Determination of a ligand mediated Gal4 promoter driven transactivation to quantify ligand binding mediated activation of FXR. FXR Reporter Assay kit purchased from Indigo Bioscience (Catalogue number: IB00601) to determine the potency and efficacy of compounds that can induce FXR activation. The principle application of this reporter assay system is to quantify functional activity of human FXR. The assay utilizes non-human mammalian cells, CHO (Chinese hamster ovary) cells engineered to express human NR1H4 protein (referred to as FXR). Reporter cells also incorporate the cDNA encoding beetle luciferase which catalyzes the substrates and yields photon emission. Luminescence intensity of the reaction is quantified using a plate-reading luminometer, Envision. Reporter Cells include the luciferase reporter gene functionally linked to an FXR responsive promoter. Thus, quantifying changes in luciferase expression in the treated reporter cells provides a sensitive surrogate measure of the changes in FXR activity. […] The assay is according to the manufacturer's instructions. […] Retrieve Reporter Cells from −80° C. storage. Perform a rapid thaw of the frozen cells by transferring a 10 ml volume of 37° C. cell recovery medium into the tube of frozen cells. […] Retrieve the tube of Reporter Cell Suspension from the water bath. […] Dispense 90 μl of cell suspension into each well of the 96-well Assay Plate. Transfer the plate into 37° C. incubator, allowing the cells adherent to the bottom of the well. Dilute compounds in Dilution Plate (DP), and administrate to cells at Assay Plate (AP). […] Cells were incubated for additional 22 hours before luciferase activities were measured. Thirty minutes before intending to quantify FXR activity, remove Detection Substrate and Detection Buffer from the refrigerator and place them in a low-light area so that they may equilibrate to room temperature. Remove the plate's lid and discard all media contents by ejecting it into an appropriate waste container. Gently tap the inverted plate onto a clean absorbent paper towel to remove residual droplets. Cells will remain tightly adhered to well bottoms. Add 100 μl of luciferase detection reagent to each well of the assay plate. Allow the assay plate to rest at room temperature for at least 5 minutes following the addition of LDR. Set the instrument (Envision) to perform a single 5 second “plate shake” prior to reading the first assay well. Read time may be 0.5 second (500 mSec) per well.
A general note: Reporter assays use an easily measured gene product as a stand-in for the process of interest.
What is called pEC50 is the negative decadic logarithm of the EC50, by convention in mol/L. For `O=C(Nc1cccc(F)c1)N1C2CCC1CC(OCc1c(-c3c(Cl)cccc3Cl)noc1C1CC1)C2` (stereo not shown) [Example 1], the negative-log EC50 (pEC50) is more than 8.00.

Consider `N#Cc1cccc(NC(=O)N2C3CCC2CC(OCc2c(-c4c(Cl)cccc4Cl)noc2C2CC2)C3)c1` (stereo not shown) [Example 3], for which the pEC50 was more than 8.00.

Take `CC(C)(C)c1cccc(NC(=O)N2C3CCC2CC(OCc2c(-c4c(Cl)cccc4Cl)noc2C2CC2)C3)c1` (stereo not shown) [Example 4]: the negative logarithm of the EC50 (pEC50) was 7.00 to 8.00.

With `CN1CCC(c2cccc(NC(=O)N3C4CCC3CC(OCc3c(-c5c(Cl)cccc5Cl)noc3C3CC3)C4)c2)CC1` (stereo not shown) [Example 5], the pEC50 is 7.00 to 8.00.

Turning to `O=C(Nc1ccccc1C(F)(F)F)N1C2CCC1CC(OCc1c(-c3c(Cl)cccc3Cl)noc1C1CC1)C2` (stereo not shown) [Example 6], the pEC50 is 6.00 to 7.00.

As to `O=C(Nc1ccccc1F)N1C2CCC1CC(OCc1c(-c3c(Cl)cccc3Cl)noc1C1CC1)C2` (stereo not shown) [Example 7], the negative logarithm of the EC50 (pEC50) is 7.00 to 8.00.

On to `O=C(Nc1ccc(C(F)(F)F)cc1)N1C2CCC1CC(OCc1c(-c3c(Cl)cccc3Cl)noc1C1CC1)C2` (stereo not shown) [Example 8], for which the pEC50 was 6.00 to 7.00.

For the molecule `N#Cc1ccc(NC(=O)N2C3CCC2CC(OCc2c(-c4c(Cl)cccc4Cl)noc2C2CC2)C3)cc1` (stereo not shown) [Example 9], the pEC50 was 7.00 to 8.00.

Take `O=C(Nc1cc(F)c(F)c(F)c1)N1C2CCC1CC(OCc1c(-c3c(Cl)cccc3Cl)noc1C1CC1)C2` (stereo not shown) [Example 10]: the pEC50 was 7.00 to 8.00.

For `O=C(Nc1cc(F)cc(C(F)(F)F)c1)N1C2CCC1CC(OCc1c(-c3c(Cl)cccc3Cl)noc1C1CC1)C2` (stereo not shown) [Example 11], the pEC50 was more than 8.00.

Consider `Cn1cc(-c2cccc(NC(=O)N3C4CCC3CC(OCc3c(-c5c(Cl)cccc5Cl)noc3C3CC3)C4)c2)cn1` (stereo not shown) [Example 13], for which the negative-log EC50 (pEC50) is more than 8.00.

Regarding `O=C(Nc1cc(-c2cccnc2)cc(C(F)(F)F)c1)N1C2CCC1CC(OCc1c(-c3c(Cl)cccc3Cl)noc1C1CC1)C2` (stereo not shown) [Example 14], the pEC50 is more than 8.00.

With `O=C(Nc1cccnc1)N1C2CCC1CC(OCc1c(-c3c(Cl)cccc3Cl)noc1C1CC1)C2` (stereo not shown) [Example 15], the negative logarithm of the EC50 (pEC50) was more than 8.00.

Turning to `O=C(Nc1ccccn1)N1C2CCC1CC(OCc1c(-c3c(Cl)cccc3Cl)noc1C1CC1)C2` (stereo not shown) [Example 16], the negative logarithm of the EC50 (pEC50) is 6.00 to 7.00.

Take `O=C(Nc1ccncc1)N1C2CCC1CC(OCc1c(-c3c(Cl)cccc3Cl)noc1C1CC1)C2` (stereo not shown) [Example 17]: the pEC50 was 7.00 to 8.00.

Consider `O=C(Nc1cncc(C(F)(F)F)c1)N1C2CCC1CC(OCc1c(-c3c(Cl)cccc3Cl)noc1C1CC1)C2` (stereo not shown) [Example 18], for which the pEC50 is more than 8.00.

On to `O=C(Nc1cccc2ccccc12)N1C2CCC1CC(OCc1c(-c3c(Cl)cccc3Cl)noc1C1CC1)C2` (stereo not shown) [Example 19], for which the pEC50 is 7.00 to 8.00.

With `O=C(Nc1ccc2ccccc2c1)N1C2CCC1CC(OCc1c(-c3c(Cl)cccc3Cl)noc1C1CC1)C2` (stereo not shown) [Example 20], the pEC50 is 7.00 to 8.00.

On to `O=C(Nc1cnc2ccccc2c1)N1C2CCC1CC(OCc1c(-c3c(Cl)cccc3Cl)noc1C1CC1)C2` (stereo not shown) [Example 21], for which the pEC50 is 7.00 to 8.00.

`O=C(Nc1ccc2ncccc2c1)N1C2CCC1CC(OCc1c(-c3c(Cl)cccc3Cl)noc1C1CC1)C2` (stereo not shown) [Example 22]: the negative logarithm of the EC50 (pEC50) was more than 8.00.

For `O=C(Nc1nc2ccccc2s1)N1C2CCC1CC(OCc1c(-c3c(Cl)cccc3Cl)noc1C1CC1)C2` (stereo not shown) [Example 23], the negative logarithm of the EC50 (pEC50) was 7.00 to 8.00.

In the case of `NS(=O)(=O)c1cccc(NC(=O)N2C3CCC2CC(OCc2c(-c4c(Cl)cccc4Cl)noc2C2CC2)C3)c1` (stereo not shown) [Example 24], the pEC50 is 6.00 to 7.00.

For `CN(C)S(=O)(=O)c1cccc(NC(=O)N2C3CCC2CC(OCc2c(-c4c(Cl)cccc4Cl)noc2C2CC2)C3)c1` (stereo not shown) [Example 25], the pEC50 was more than 8.00.

With `O=C(NC1CCCCC1)N1C2CCC1CC(OCc1c(-c3c(Cl)cccc3Cl)noc1C1CC1)C2` (stereo not shown) [Example 30], the pEC50 is 7.00 to 8.00.

In the case of `N#Cc1cccc(NC(=O)N2C3CCC2CC(NCc2c(-c4c(Cl)cccc4Cl)noc2C2CC2)C3)c1` (stereo not shown) [Example 93], the pEC50 was 7.00 to 8.00.

In the case of `O=C(Nc1cccc(C(F)(F)F)c1)N1C2CCC1CC(NCc1c(-c3ccccc3OC(F)(F)F)noc1C1CC1)C2` (stereo not shown) [Example 121], the pEC50 was 7.00 to 8.00.

For `CCOC(=O)c1cccc(NC(=O)N2C3CCC2CC(OCc2c(-c4c(Cl)cccc4Cl)noc2C2CC2)C3)c1` (stereo not shown) [Example 181], the pEC50 was more than 8.00.

Consider `CCOC(=O)c1ccc(NC(=O)N2C3CCC2CC(OCc2c(-c4c(Cl)cccc4Cl)noc2C2CC2)C3)cc1` (stereo not shown) [Example 182], for which the pEC50 is 7.00 to 8.00.

As for `O=C(O)c1cccc(NC(=O)N2C3CCC2CC(OCc2c(-c4c(Cl)cccc4Cl)noc2C2CC2)C3)c1` (stereo not shown) [Example 183], the pEC50 is 6.00 to 7.00.

Turning to `O=C(O)c1ccc(NC(=O)N2C3CCC2CC(OCc2c(-c4c(Cl)cccc4Cl)noc2C2CC2)C3)cc1` (stereo not shown) [Example 184], the pEC50 was more than 8.00.

In the case of `O=C(Nc1cccc(-c2nnn[nH]2)c1)N1C2CC[C@H]1CC(OCc1c(-c3c(Cl)cccc3Cl)noc1C1CC1)C2` (stereo partly shown) [Example 185], the pEC50 is 6.00 to 7.00.

`Cn1nnnc1-c1cccc(NC(=O)N2C3CCC2CC(OCc2c(-c4c(Cl)cccc4Cl)noc2C2CC2)C3)c1` (stereo not shown) [Example 186]: the negative-log EC50 (pEC50) is 7.00 to 8.00.

In the case of `Cn1nnc(-c2cccc(NC(=O)N3C4CCC3CC(OCc3c(-c5c(Cl)cccc5Cl)noc3C3CC3)C4)c2)n1` (stereo not shown) [Example 187], the pEC50 is 7.00 to 8.00.

Consider `O=C(Nc1ccc(C(F)F)cc1)N1C2CCC1CC(OCc1c(-c3c(Cl)cccc3Cl)noc1C1CC1)C2` (stereo not shown) [Example 189], for which the pEC50 is 7.00 to 8.00.

Turning to `COC(=O)c1ccc(NC(=O)N2C3CCC2CC(OCc2c(-c4c(Cl)cccc4Cl)noc2C2CC2)C3)c(OC)c1` (stereo not shown) [Example 190], the pEC50 was 7.00 to 8.00.

On to `COc1cc(C(=O)O)ccc1NC(=O)N1C2CCC1CC(OCc1c(-c3c(Cl)cccc3Cl)noc1C1CC1)C2` (stereo not shown) [Example 192], for which the pEC50 was more than 8.00.

As for `COC(=O)c1ccc(NC(=O)N2C3CCC2CC(OCc2c(-c4c(Cl)cccc4Cl)noc2C2CC2)C3)cc1C(F)(F)F` (stereo not shown) [Example 194], the pEC50 is more than 8.00.

Consider `O=C(O)c1ccc(NC(=O)N2C3CCC2CC(OCc2c(-c4c(Cl)cccc4Cl)noc2C2CC2)C3)cc1C(F)(F)F` (stereo not shown) [Example 195], for which the pEC50 is 7.00 to 8.00.

Turning to `COC(=O)c1ccc(NC(=O)N2C3CCC2CC(OCc2c(-c4c(Cl)cccc4Cl)noc2C2CC2)C3)cc1F` (stereo not shown) [Example 196], the pEC50 is more than 8.00.

For `O=C(O)c1ccc(NC(=O)N2C3CCC2CC(OCc2c(-c4c(Cl)cccc4Cl)noc2C2CC2)C3)cc1F` (stereo not shown) [Example 197], the pEC50 is 7.00 to 8.00.

In the case of `COC(=O)c1c(F)cc(NC(=O)N2C3CCC2CC(OCc2c(-c4c(Cl)cccc4Cl)noc2C2CC2)C3)cc1F` (stereo not shown) [Example 198], the pEC50 was more than 8.00.

`O=C(O)c1c(F)cc(NC(=O)N2C3CCC2CC(OCc2c(-c4c(Cl)cccc4Cl)noc2C2CC2)C3)cc1F` (stereo not shown) [Example 199]: the pEC50 was 6.00 to 7.00.

In the case of `COC(=O)c1ccc(NC(=O)N2C3CCC2CC(OCc2c(-c4c(Cl)cccc4Cl)noc2C2CC2)C3)cc1-c1ccccc1` (stereo not shown) [Example 200], the pEC50 is more than 8.00.

For `O=C(O)c1ccc(NC(=O)N2C3CCC2CC(OCc2c(-c4c(Cl)cccc4Cl)noc2C2CC2)C3)cc1-c1ccccc1` (stereo not shown) [Example 201], the pEC50 is more than 8.00.

Take `O=C(O)c1cnc2ccc(NC(=O)N3C4CCC3CC(OCc3c(-c5c(Cl)cccc5Cl)noc3C3CC3)C4)cc2c1` (stereo not shown) [Example 211]: the pEC50 is 6.00 to 7.00.

With `COC(=O)c1ccc(NC(=O)N2C3CCC2CC(OCc2c(-c4c(Cl)cccc4Cl)noc2C2CC2)C3)cn1` (stereo not shown) [Example 212], the pEC50 was more than 8.00.

Values taken from US10597391B2, “Urea-containing isoxazole derivatives as FXR agonists and methods of use thereof” (Enanta Pharmaceuticals, Inc., priority 2016, dated 2020).
